Assay results: US6699682B2, “Assay for inhibitors of fatty-acid amide hydrolase” (The Scripps Research Institute, priority 1995, dated 2004)

Target: T1, human recombinant expressed FAAH (Homo sapiens, UniProt O00519)
T1 construct: expressed in transfected cells; host or cells: COS-7 cells, transient, pcDNA3; dounce-homogenised cell extract
T1 sequence (O00519 1-579): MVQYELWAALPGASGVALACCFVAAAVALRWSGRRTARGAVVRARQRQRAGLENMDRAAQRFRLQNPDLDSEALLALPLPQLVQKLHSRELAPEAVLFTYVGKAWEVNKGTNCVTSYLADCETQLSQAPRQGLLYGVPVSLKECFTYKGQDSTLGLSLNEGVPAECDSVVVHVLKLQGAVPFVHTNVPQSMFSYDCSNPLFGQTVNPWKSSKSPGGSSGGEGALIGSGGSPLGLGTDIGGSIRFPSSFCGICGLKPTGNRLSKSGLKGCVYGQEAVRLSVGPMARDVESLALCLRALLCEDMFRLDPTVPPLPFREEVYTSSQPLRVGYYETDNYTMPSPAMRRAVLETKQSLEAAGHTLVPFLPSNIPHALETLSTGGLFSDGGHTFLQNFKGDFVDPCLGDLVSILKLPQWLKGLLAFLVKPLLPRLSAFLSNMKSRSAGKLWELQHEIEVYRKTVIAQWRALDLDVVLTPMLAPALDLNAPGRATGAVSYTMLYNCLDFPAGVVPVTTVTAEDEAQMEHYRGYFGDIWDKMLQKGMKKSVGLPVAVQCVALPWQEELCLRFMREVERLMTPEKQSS
Assay: oleamide hydrolysis by COS-7 cells transfected with human oleamide hydrolase (TLC)
Format: biochemical
Settings: versus control COS-7 cells
Procedure: For preparing the rat, mouse and human FAAH recombinant protein, the corresponding FAAH cDNAs were excised from the Bluescript II vectors and separately ligated into the eukaryotic expression vector, pcDNA3 (Invitrogen, San Diego, Calif.). 100 mm dishes of COS-7 cells were grown at 37° C. to 70% confluency in complete medium (DMEM with L-glutamine, non-essential amino acids, sodium pyruvate and fetal bovine serum). The COS-7 cells were then washed with serum-free medium and treated with 5 ml of transfection solution (5-6 μg of FAAH-pcDNA3 vector were preincubated with transfectamine (Gibco-BRL) for 30 minutes in 1 ml of serum free medium, then diluted to a final volume of 5 ml with serum free medium). The COS-7 cells were incubated at 37° C. for 5 hours, at which point 10 ml of complete medium was added to the cells and incubation was continued at 37° C. for 12 hours. The transfection solution was then aspirated away from the COS-7 cells, and the cells were incubated in a fresh batch of complete medium for another 24 hours. […]
While untransfected COS-7 cells contained negligible amounts of oleamide hydrolase activity, COS-7 cells transfected with the rat FAAH cDNA expressed high levels of oleamide hydrolase activity (FIG. 15A). The assay was performed as described in Section B where by TLC the conversion of oleamide to oleic acid was assessed.

SMILES: CCCCCCCC/C=C\CCCCCCCC(N)=O [cis-9,10-octadecenoamide, Cis-9,10-octadecenoamide]
- conversion of oleamide to oleic acid by human FAAH-transfected COS-7 cells (qualitative, TLC): conversion to oleic acid is seen only in lane 2
